Columns and labels:
LLC1 cells = assay: LLC1 lung tumor formation after tail vein injection (experimental metastasis); format: in vivo, mouse; conditions: 1×10^6 LLC1 cells with MLK inhibitor or solvent in 200 ul PBS into tail vein of WT mice; lung isolated after 20 days
Method: 1×10^6 LLC1 cells, with either MLK inhibitor (URMC-099) or solvent in 200 ul of sterile PBS were injected into the tail vein of WT mice (12-16 week of age). After 20 days of injection Lung was isolated (A) and tumor number were counted (Control—White bar; MLK inhibitor—Black bar) (B).
We also tested the role of MLK inhibitor in Lung tumor formation. […] After 20 days of injection Lung was isolated and tumor number were counted (Control—White bar; MLK inhibitor—Black bar).

primary MLEC cells = assay: qPCR of pro-angiogenic genes in primary MLEC after miR146a mimic transfection, 90 minutes hypoxia; format: cell-based, mouse; conditions: mimic transfected 48 hours, 1% O2, versus control
Method: Either control or miR146a mimic were transfected into primary MLEC cells for 48 hours. Cells were incubated for 90 minutes in hypoxia chamber in the presence of 1% O2. RNA was isolated and qPCR was performed for genes as noted.
(§1) Total RNA was extracted from cells and tissues with the RNeasy Mini Kit (Qiagen) or TRIzol reagent (Invitrogen), and 1 μg of total RNA was reverse transcribed with oligo(dT) primers for cDNA synthesis. The expression of mRNA was examined by quantitative PCR analysis using a QuantStudio™ 6 Flex Real-Time PCR System (Applied Biosystems). Taqman© assays were used to quantitate Pgf, Adam8, Mmp9, Angptl4, Hprt (Mm00446968—m1) and Gapdh (4352339E-0904021) mRNA (Applied Biosystems). The 2^−ΔΔCT method is used for relative quantification of gene as described elsewhere^5,6. reference genes of Hprt and Gapdh have been used to normalize the PCRs in each sample.

[1] = tested on: mouse lung endothelial cell (MLEC); assay: qRT-PCR of angiogenesis related genes in WT MLEC after miR146a mimic, 4 hours post hypoxia; format: cell-based; conditions: mimic 48 hours, versus control
Method: (A-D) mRNA was isolated from WT mouse lung endothelial cell (MLEC) treated either with control or miR146a mimic for 48 hours and qRT-PCR was performed for different angiogenesis related genes after 4 hours post hypoxia
Quiescent monolayers of WT and Mlk2/3−/− primary endothelial cell MLECs were exposed to normoxia (21% O2) or hypoxia (1% O2) for 0-24 h in a hypoxia chamber. After exposure cells were immediately harvested and examined for expression of genes by qPCR or immunoblots.
as §1

| Compound | LLC1 tumor formation in vivo (lung tumor number) (LLC1 cells) | expression of pro-angiogenic factors (VEGF, Angptl4, Angpt2, MMP9) by qPCR (primary MLEC cells) | expression of pro-angiogenic factors (VEGF, Angptl4, Angpt2, MMP9) by qPCR (primary MLEC cells; listed as miR146a) | angiogenesis related gene expression by qRT-PCR [1] |
| --- | --- | --- | --- | --- |
| CN1CCN(Cc2ccc(-c3cnc4[nH]cc(-c5ccc6[nH]ccc6c5)c4c3)cc2)CC1 [URMC-099] | suppressed LLC1 tumor formation in vivo | – | – | – |
| ugagaacugaauuccauggguu (SEQ ID NO:3) [miR146a mimic] | – | down-regulated | suppressed the pro-angiogenic factors | mimic the MLK deficient phenotype |

Reference: patent US12083143B2, “MLK-regulated microRNAs in angiogenesis and tumor development” (University of Massachusetts, priority 2018, dated 2024)
